Measured values taken from ChEMBL document CHEMBL5230127, “Research progress of mTOR inhibitors” (Eur J Med Chem, 2020).
One block for each compound: values may come before it.

Key:
[1] = Inhibition of DNAPK in human HCT-116 cells preincubated for 1 hr followed by UV radiation and measured after 1 hr by Bradford assay based immunoblotting analysis; type: cell-based
[2] = molecular target: T1, Serine/threonine-protein kinase mTOR (Homo sapiens, UniProt P42345)
[3] = system: Splenocyte; assay: Immunosuppressive activity in BDF1 mouse Splenocyte assessed as inhibition of concanavalin A induced T-cell proliferation incubated for 72 hrs by [3H]-thymidine incorporation based liquid scintillation counter analysis; type: functional
[4] = system: Cortical neurone; assay: Neuroprotective activity in rat Primary cortical neuron assessed as increase in neuronal survival by measuring neurofilament incubated for 72 hrs by ELISA; type: functional, cell-based
[5] = system: Cortical neurone; assay: Neuroprotective activity in rat Primary cortical neuron assessed as increase in neurite outgrowth incubated for 72 hrs by cellomics array-scan assay; type: functional, cell-based
[6] = molecular target: mTORC2 (Homo sapiens, UniProt P42345); assay: Inhibition of mTORC2 in human LN-229 cells assessed as decrease in phosphorylation of AKT at Ser473 level incubated for 24 hrs by immunoblot assay; type: cell-based
[7] = molecular target: T1, Serine/threonine-protein kinase mTOR; assay: Binding affinity to mTOR (unknown origin) assessed as dissociation constant by measuring pKd
[8] = molecular target: T1, Serine/threonine-protein kinase mTOR; assay: Inhibition of mTOR (unknown origin) assessed as inhibition constant using GFP-4EBP1 as substrate by Lanthascreen based time resolved fluorescence based assay
[9] = molecular target: Phosphatidylinositol 4,5-bisphosphate 3-kinase catalytic subunit alpha isoform (Homo sapiens, UniProt P42336); assay: Inhibition of PIK3alpha (unknown origin) expressed in baculovirus assessed as inhibition constant using PIP2 as substrate in presence of [gamma-32P]ATP incubated for 30 mins by scintillation proximity assay
[10] = molecular target: Serine/threonine-protein kinase mTOR (Rattus norvegicus, UniProt P42346); assay: Inhibition of mTOR in rat brain by […] immunoblot assay; type: tissue-based

Chain of Phosphatidylinositol 4,5-bisphosphate 3-kinase catalytic subunit alpha isoform (P42336 whole entry, canonical isoform): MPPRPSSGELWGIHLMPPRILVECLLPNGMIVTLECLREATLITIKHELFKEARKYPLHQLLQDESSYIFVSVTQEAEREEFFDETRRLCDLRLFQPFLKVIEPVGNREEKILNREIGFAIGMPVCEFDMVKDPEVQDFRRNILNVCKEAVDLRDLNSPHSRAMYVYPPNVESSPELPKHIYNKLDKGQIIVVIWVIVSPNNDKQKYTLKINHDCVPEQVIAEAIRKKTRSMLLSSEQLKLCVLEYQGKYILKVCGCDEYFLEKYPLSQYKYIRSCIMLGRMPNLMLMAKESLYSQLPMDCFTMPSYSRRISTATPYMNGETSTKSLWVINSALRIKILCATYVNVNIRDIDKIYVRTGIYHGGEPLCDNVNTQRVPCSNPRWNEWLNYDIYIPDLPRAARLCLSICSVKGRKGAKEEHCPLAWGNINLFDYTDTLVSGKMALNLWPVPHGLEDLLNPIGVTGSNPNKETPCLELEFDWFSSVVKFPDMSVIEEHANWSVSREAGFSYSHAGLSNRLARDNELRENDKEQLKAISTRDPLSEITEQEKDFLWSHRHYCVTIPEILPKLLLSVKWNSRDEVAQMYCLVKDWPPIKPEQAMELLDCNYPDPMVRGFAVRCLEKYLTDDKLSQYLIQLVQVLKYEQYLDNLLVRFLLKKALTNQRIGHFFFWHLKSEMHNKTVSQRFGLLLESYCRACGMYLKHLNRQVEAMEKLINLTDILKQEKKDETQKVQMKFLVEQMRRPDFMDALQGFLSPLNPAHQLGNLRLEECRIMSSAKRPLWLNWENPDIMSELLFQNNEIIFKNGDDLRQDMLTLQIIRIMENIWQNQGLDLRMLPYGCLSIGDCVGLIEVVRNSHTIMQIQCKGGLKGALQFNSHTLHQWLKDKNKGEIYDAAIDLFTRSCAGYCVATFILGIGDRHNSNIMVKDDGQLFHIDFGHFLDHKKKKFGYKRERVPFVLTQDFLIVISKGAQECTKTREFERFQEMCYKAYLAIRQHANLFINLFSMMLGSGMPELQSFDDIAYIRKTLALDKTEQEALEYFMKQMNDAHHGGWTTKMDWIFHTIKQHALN

IC50 [1]: < 10 nM
Compound: Nc1ccc(-c2ccc3ncc4ccc(=O)n(-c5cccc(C(F)(F)F)c5)c4c3c2)cn1

Compound: COc1cccc2cc(-c3nc(C4CCC(C(=O)O)CC4)n4ncnc(N)c34)[nH]c12 (stereo unspecified)
IC50 [2]: 4 nM

Compound: CO[C@@H]1C[C@H](C[C@@H](C)[C@@H]2CC(=O)[C@H](C)/C=C(\C)[C@@H](O)[C@@H](OC)C(=O)[C@H](C)C[C@H](C)/C=C/C=C/C=C(\C)[C@@H](OCc3ccccc3)C[C@@H]3CC[C@@H](C)[C@@](O)(O3)C(=O)C(=O)N3CCCC[C@H]3C(=O)O2)CC[C@H]1O
IC50 [3]: 6 nM

Compound: CO[C@@H]1C[C@H](C[C@@H](C)[C@@H]2CC(=O)[C@H](C)/C=C(\C)[C@@H](O)[C@@H](OC)C(=O)[C@H](C)C[C@H](C)/C=C/C=C/C=C(\C)CC[C@@H]3CC[C@@H](C)[C@@](O)(O3)C(=O)C(=O)N3CCCC[C@H]3C(=O)O2)CC[C@H]1O
IC50 [3]: 2 nM

Compound: CO[C@H]1C[C@@H]2CC[C@@H](C)[C@@](O)(O2)C(=O)C(=O)N2CCCC[C@H]2C(=O)O[C@H]([C@H](C)C[C@@H]2CC[C@@H](O)[C@H](OC)C2)CC(=O)[C@H](C)/C=C(\C)[C@@H](O)[C@@H](OC)C(=O)[C@H](C)C[C@H](C)C2C=CC(/C=C/1C)ON2c1ccccc1
EC50 [4]: 700 nM | EC50 [5]: 420 nM

IC50 [6]: 310 nM
Compound: CC1CN(C(=O)Nc2ccc(Cl)c(Cl)c2)/C(=N/c2cccc(F)c2)S1 (stereo unspecified)

Kd [7]: 204 nM
Compound: CNc1ncnn2c(C3CCC(C(=O)O)CC3)nc(-c3cc4cccc(OC5CCOC5)c4[nH]3)c12 (stereo unspecified)

Compound: O=C(O[C@@H]1Cc2c(O)cc(O)cc2O[C@@H]1c1cc(O)c(O)c(O)c1)c1cc(O)c(O)c(O)c1 [EPIGALOCATECHIN GALLATE]
Ki [8]: 320 nM | Ki [9]: 380 nM

Compound: COC[C@H]1OC(=O)c2coc3c2[C@@]1(C)C1=C(C3=O)[C@@H]2CCC(=O)[C@@]2(C)C[C@H]1OC(C)=O [WORTMANNIN]
IC50 [10]: 300 nM
